Tests used:
BACE1 [1] = target: T1, BACE1 (Homo sapiens, UniProt P56817); test: In Vitro BACE Cell-based Assay (HEK cell assay): Aβ40 in conditioned medium of cells stably expressing Amyloid Precursor Protein, sandwich ELISA; conditions: read-out: HEK cell assay
Outline: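 First, APP-stable cells grow 24 h at 37° C., 5% CO2. Next, test compounds are added for 24 h (10 doses, 0.1% DMSO). Finally, medium Aβ40 is determined by pAb40/6E10 sandwich ELISA with Europium TRF, and IC50 is calculated.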

BACE1 [2] = target: T1, BACE1; test: In Vitro Enzymatic BACE FRET (Fluorescence Resonance Energy Transfer) Assay; format: biochemical; conditions: read-out: BACE1 FRET assay
Outline: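 Acetate buffer at pH 4.2 with 10% DMSO and 100 uM genapol hosts the enzymatic reaction, initiated by 50 nM FRET substrate and allowed to proceed one hour. Tris quench to neutral pH precedes the fluorescence measurement.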

T1 sequence (P56817 46-501, species assumed): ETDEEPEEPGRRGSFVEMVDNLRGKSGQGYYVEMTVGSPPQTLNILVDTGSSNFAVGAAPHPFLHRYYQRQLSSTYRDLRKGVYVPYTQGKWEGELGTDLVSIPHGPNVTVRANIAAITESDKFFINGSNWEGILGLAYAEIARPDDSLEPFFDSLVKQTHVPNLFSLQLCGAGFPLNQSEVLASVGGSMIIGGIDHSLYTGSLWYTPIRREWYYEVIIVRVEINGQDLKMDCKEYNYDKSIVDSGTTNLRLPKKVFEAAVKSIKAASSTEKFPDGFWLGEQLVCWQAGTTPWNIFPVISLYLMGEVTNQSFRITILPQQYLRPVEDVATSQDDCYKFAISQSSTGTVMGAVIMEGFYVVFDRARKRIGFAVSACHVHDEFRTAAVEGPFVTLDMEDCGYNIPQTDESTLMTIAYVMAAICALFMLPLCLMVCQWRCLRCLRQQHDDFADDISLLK

| IC50 (BACE1 [1]; Table IV, class symbols) | IC50 (BACE1 [2]; Table IV, class symbols) | IC50 (BACE1 [2]) | also measured | Structure (SMILES) |
| --- | --- | --- | --- | --- |
| 1 to 5 µM | 0.1 to 1 µM |  |  | COc1ccc2c(c1)[C@]1(COC(N)=N1)c1cc(-c3cccc4cnccc34)ccc1O2 [compound 588] |
|  |  |  | IC50 (BACE1 [1]; HEK cell-based assay, Aβ40 in conditioned medium, IC50 class symbols): < 0.1 µM; IC50 (BACE1 [2]; in vitro BACE FRET enzyme assay, IC50 class symbols): < 0.1 µM | CC(C)(C#N)COc1cnc2c(c1)[C@]1(COC(N)=N1)c1cc(-c3ccccc3F)ccc1O2 [compound 408] |
| 0.1 to 1 µM | < 0.1 µM |  |  | CCCNC(=O)c1ccc2c(c1)[C@@]1(COC(N)=N1)c1cc(OCC(C)(C)C)ccc1O2 [compound 657] |
|  |  | < 0.1 µM | IC50 (BACE1 [1]): < 0.1 µM | CC(C)C#Cc1cnc2c(c1)[C@]1(COC(N)=N1)c1cc(-c3cncnc3)ccc1O2 [compound 743] |
| 0.1 to 1 µM | < 0.1 µM |  |  | CC(C)(C)COc1ccc2c(c1)[C@]1(COC(N)=N1)c1cc(-c3cccnc3F)cnc1O2 [compound 871] |
|  |  | < 0.1 µM | IC50 (BACE1 [1]): < 0.1 µM | NC1=N[C@]2(CO1)c1cc(C#CC3(O)CCC3)ccc1Oc1ccc(-c3cccnc3)cc12 [compound 942] |
|  |  |  | IC50 (BACE1 [1]; Table III, IC50's in uM ranges): < 0.1 µM; IC50 (BACE1 [2]; Table III, IC50's in uM ranges): < 0.1 µM | NC1=N[C@@]2(CO1)c1cc(-c3cccnc3)ccc1Oc1cnc(-c3cccnc3)cc12 [compound 184] |
|  |  | < 0.1 µM | IC50 (BACE1 [1]): 0.1 to 1 µM | CC(C)(C)CC(=O)c1ccc2c(c1)[C@]1(CSC(N)=N1)c1cc(-c3cncnc3)ccc1O2 [compound 761] |
| 0.1 to 1 µM | 0.1 to 1 µM |  |  | COc1ccc2c(c1)[C@]1(COC(N)=N1)c1cc(NC(=O)c3ccccn3)ccc1O2 [compound 615] |
|  |  | 0.1 to 1 µM | IC50 (BACE1 [1]): 0.1 to 1 µM | NC1=N[C@]2(CO1)c1cc(OC3COC3)ccc1Oc1ccc(-c3cccnc3)cc12 [compound 777] |
| 1 to 5 µM | 0.1 to 1 µM |  |  | CC(C)(C)C#Cc1ccc2c(c1)[C@]1(COC(N)=N1)c1cc(-c3cccnc3)cnc1O2 [compound 896] |
| > 5 µM | 1 to 5 µM |  |  | CC(C)(C)COc1ccc2c(c1)[C@]1(COC(N)=N1)c1cc(C(=O)O)ccc1O2 [compound 861] |
|  |  | < 0.1 µM | IC50 (BACE1 [1]; HEK cells): < 0.1 µM | CC(C)(C)CCc1cc2c(cn1)Oc1ccc(-c3cncnc3)cc1[C@@]21COC(N)=N1 [compound 455] |
| < 0.1 µM | < 0.1 µM |  |  | CC(C)(C)CCc1cnc2c(c1)[C@]1(COC(N)=N1)c1cc(-c3cccnc3)ccc1O2 [compound 922] |
| 1 to 5 µM | 1 to 5 µM |  |  | COc1ccc2c(c1)[C@]1(COC(N)=N1)c1cc(NC(=O)c3ccccc3)ccc1O2 [compound 616] |
|  |  |  | IC50 (BACE1 [1]; Table III, IC50's in uM ranges): 1 to 5 µM; IC50 (BACE1 [2]; Table III, IC50's in uM ranges): 0.1 to 1 µM | CC(C)(C)COc1ccc2c(c1)[C@]1(COC(N)=N1)c1cc(-c3csc(-n4ccnc4)n3)ccc1O2 [compound 214] |
|  |  | < 0.1 µM | IC50 (BACE1 [1]): < 0.1 µM | N#Cc1cccc(-c2ccc3c(c2)[C@]2(COC(N)=N2)c2cc(-c4cccnc4)ccc2O3)c1 [compound 961] |
|  |  |  | IC50 (BACE1 [1]; Table III, IC50's in uM ranges): 0.1 to 1 µM; IC50 (BACE1 [2]; Table III, IC50's in uM ranges): < 0.1 µM | NC1=NC2(CO1)c1cc(-c3cncnc3)ccc1Oc1ccc(-c3cncnc3)cc12 [compound 137] |
| 1 to 5 µM | 0.1 to 1 µM |  |  | NC1=N[C@]2(CO1)c1cc(-c3cccc(OC(F)(F)F)c3)ccc1Oc1ncccc12 [compound 595] |
|  |  | 0.1 to 1 µM | IC50 (BACE1 [1]): 1 to 5 µM | CC(C)(C)COc1ccc2c(c1)[C@]1(COC(N)=N1)c1cc(C3CC3)ccc1O2 [compound 759] |
|  |  | < 0.1 µM | IC50 (BACE1 [1]): < 0.1 µM | NC1=N[C@]2(CO1)c1cc(C3=CCOCC3)ccc1Oc1ccc(-c3cccnc3)cc12 [compound 715] |
|  |  |  | IC50 (BACE1 [1]; Table II, Aβ40, 24 h incubation): 0.1 to 1 µM; IC50 (BACE1 [2]; Table II): < 0.1 µM | CC(C)(C)COc1ccc2c(c1)[C@]1(COC(N)=N1)c1cc(C#CC3CC3)ccc1O2 [Example 40, (4S)-2′-(cyclopropylethynyl)-7′-(2,2-dimethylpropoxy)spiro[1,3-oxazole-4,9′-xanthen]-2-amine] |
|  |  | < 0.1 µM | IC50 (BACE1 [1]; HEK cells): < 0.1 µM | CC1(C)C=C(c2cc(F)c3c(c2)[C@]2(COC(N)=N2)c2cc(-c4cncnc4)ccc2O3)CCO1 [compound 466] |
| < 0.1 µM | < 0.1 µM |  |  | CC(C)(O)COc1ccc2c(c1)[C@]1(COC(N)=N1)c1cc(-c3cccnc3F)ccc1O2 [compound 906] |
|  |  |  | IC50 (BACE1 [1]; Table III, IC50's in uM ranges): < 0.1 µM; IC50 (BACE1 [2]; Table III, IC50's in uM ranges): < 0.1 µM | CC(C)(C)COc1ccc2c(c1)[C@]1(COC(N)=N1)c1cc(-c3cnccn3)ccc1O2 [Example 131, (S)-2′-(neopentyloxy)-7′-(pyrazin-2-yl)-5H-spiro[oxazole-4,9′-xanthen]-2-amine] |
|  |  |  | IC50 (BACE1 [1]; Table III, IC50's in uM ranges): 0.1 to 1 µM; IC50 (BACE1 [2]; Table III, IC50's in uM ranges): < 0.1 µM | NC1=N[C@]2(CO1)c1cc(-c3cccnc3)ccc1Oc1ncc(Br)cc12 [compound 174] |
|  |  | 0.1 to 1 µM | IC50 (BACE1 [1]): 0.1 to 1 µM | COC(=O)/C=C/c1ccc2c(c1)[C@]1(COC(N)=N1)c1cc(-c3cccnc3)ccc1O2 [compound 947] |

Reference: patent US8426447B2, “Spiro-tricyclic ring compounds as beta-secretase modulators and methods of use” (Amgen Inc., priority 2008, dated 2013)
